Measurements reported in the supplement of paper PMC6045584.
± gives the standard deviation of the averaged measurements.

Legend:
SOTRASTAURIN/AEB071 = compound: CN1CCN(c2nc(C3=C(c4c[nH]c5ccccc45)C(=O)NC3=O)c3ccccc3n2)CC1 [SOTRASTAURIN/AEB071]; assay: surviving fraction relative to DMSO-only wells; higher = less growth inhibition; conditions: exposure time: 5 days
Procedure, shortened: (§1)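 A line counted only if its three screens reached replicate Pearson r >0.7 and median Z' >0.3. Tumour cells in log phase were seeded at 250–500 per well in 384-well plates and, after 24 hours, kept in continuous contact with inhibitors at 0.5, 1, 5, 10, 50, 100, 500 and 1000 nM for five days. Surviving fraction was taken from CellTiter-Glo luminescence relative to the median of DMSO-only wells.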

[1] = compound: CNCc1ccc(-c2[nH]c3cc(F)cc4c3c2CCNC4=O)cc1; assay: as above; conditions: exposure time: 5 days
Procedure, shortened: as §1

Test System	surviving fraction (SOTRASTAURIN/AEB071; 0.5 nM)	surviving fraction (SOTRASTAURIN/AEB071; 1 nM)	surviving fraction (SOTRASTAURIN/AEB071; 5 nM)	surviving fraction (SOTRASTAURIN/AEB071; 10 nM)	surviving fraction (SOTRASTAURIN/AEB071; 50 nM)	surviving fraction (SOTRASTAURIN/AEB071; 100 nM)	surviving fraction (SOTRASTAURIN/AEB071; 500 nM)	surviving fraction (SOTRASTAURIN/AEB071; 1000 nM)	surviving fraction ([1]; 0.5 nM)	surviving fraction ([1]; 1 nM)	surviving fraction ([1]; 5 nM)	surviving fraction ([1]; 10 nM)	surviving fraction ([1]; 50 nM)	surviving fraction ([1]; 100 nM)	surviving fraction ([1]; 500 nM)	surviving fraction ([1]; 1000 nM)
MDAMB436 BREAST	0.976 ± 0.12	0.96 ± 0.057	0.932 ± 0.14	0.992 ± 0.13	0.943 ± 0.043	0.816 ± 0.052	0.955 ± 0.073	0.952 ± 0.056	0.882 ± 0.12	0.925 ± 0.083	0.874 ± 0.092	0.82 ± 0.1	0.62 ± 0.11	0.587 ± 0.053	0.542 ± 0.097	0.531 ± 0.064
MDAMB453 BREAST	0.996 ± 0.053	0.971 ± 0.081	1.01 ± 0.058	1 ± 0.076	0.915 ± 0.048	0.969 ± 0.1	0.951 ± 0.014	0.895 ± 0.05	0.991 ± 0.071	1.01 ± 0.096	1.05 ± 0.049	0.979 ± 0.093	0.919 ± 0.062	0.957 ± 0.06	0.892 ± 0.022	0.696 ± 0.017
MDAMB468 BREAST	0.911 ± 0.041	0.9443 ± 0.0091	1.02 ± 0.061	0.932 ± 0.019	0.964 ± 0.09	0.964 ± 0.077	0.947 ± 0.076	0.868 ± 0.053	0.941 ± 0.048	0.89 ± 0.085	0.917 ± 0.034	0.929 ± 0.056	0.8 ± 0.047	0.746 ± 0.065	0.761 ± 0.048	0.609 ± 0.12
MFM223 BREAST	1.12 ± 0.12	1.18 ± 0.094	1.07 ± 0.084	1.12 ± 0.076	0.849 ± 0.18	0.716 ± 0.081	0.719 ± 0.038	0.711 ± 0.035	1.04 ± 0.11	1.17 ± 0.072	1.07 ± 0.069	1.13 ± 0.12	0.775 ± 0.053	0.699 ± 0.011	0.755 ± 0.031	0.705 ± 0.079
MG63 BONE	1.02 ± 0.053	1.05 ± 0.047	1.06 ± 0.049	1.09 ± 0.027	1.07 ± 0.04	1.03 ± 0.065	1.02 ± 0.042	0.937 ± 0.029	1.03 ± 0.052	1.04 ± 0.032	1.05 ± 0.034	1.06 ± 0.058	1.03 ± 0.03	1.02 ± 0.028	0.975 ± 0.031	0.938 ± 0.023
MHM BONE	1.04 ± 0.022	1.04 ± 0.05	1.07 ± 0.032	1.04 ± 0.046	1.11 ± 0.016	1.089 ± 0.01	1.078 ± 0.0072	1.05 ± 0.032	1.02 ± 0.025	1.02 ± 0.035	1.05 ± 0.015	1.06 ± 0.051	1.06 ± 0.039	1.074 ± 0.0062	1.09 ± 0.022	1.07 ± 0.041
NCIH441 LUNG	1.03 ± 0.069	1.03 ± 0.043	1.16 ± 0.034	0.969 ± 0.072	1.02 ± 0.068	1 ± 0.022	1.07 ± 0.037	0.957 ± 0.083	1.06 ± 0.08	0.973 ± 0.12	1.09 ± 0.064	1.01 ± 0.06	0.992 ± 0.051	0.809 ± 0.022	0.996 ± 0.022	0.923 ± 0.1
NOS1 BONE	1.05 ± 0.087	1 ± 0.084	1.14 ± 0.12	1.08 ± 0.071	0.974 ± 0.095	1 ± 0.037	0.899 ± 0.035	1 ± 0.037	1.01 ± 0.042	1.08 ± 0.23	1.06 ± 0.13	0.919 ± 0.11	0.795 ± 0.1	0.798 ± 0.11	0.632 ± 0.049	0.602 ± 0.036
NY BONE	0.99 ± 0.041	0.971 ± 0.023	1.08 ± 0.002	1.03 ± 0.048	1.11 ± 0.022	1.09 ± 0.043	1.07 ± 0.051	1.106 ± 0.0067	0.989 ± 0.016	0.99 ± 0.044	1.05 ± 0.042	1.01 ± 0.055	0.981 ± 0.033	1.026 ± 0.0093	0.895 ± 0.03	0.827 ± 0.052
OS25HAL BONE	1.02 ± 0.057	1.006 ± 0.0082	1.03 ± 0.039	1.03 ± 0.014	1.09 ± 0.018	1.04 ± 0.042	1.09 ± 0.025	1.03 ± 0.038	0.98 ± 0.029	1.1 ± 0.024	1.017 ± 0.01	1.01 ± 0.032	0.954 ± 0.034	1.01 ± 0.052	1.003 ± 0.0071	0.98 ± 0.039
OSHN BONE	1.01 ± 0.049	0.989 ± 0.042	1.03 ± 0.044	1.02 ± 0.026	1.03 ± 0.021	0.979 ± 0.01	1 ± 0.0049	0.998 ± 0.014	1.03 ± 0.028	1.06 ± 0.028	1.01 ± 0.031	1.02 ± 0.048	0.945 ± 0.031	0.933 ± 0.029	0.959 ± 0.02	0.857 ± 0.036
PCI30 HEADNECK	0.958 ± 0.054	0.951 ± 0.062	1.07 ± 0.044	0.991 ± 0.083	1.05 ± 0.067	1.02 ± 0.072	1.07 ± 0.093	1.18 ± 0.1	0.981 ± 0.059	1.04 ± 0.059	0.912 ± 0.019	0.937 ± 0.037	0.916 ± 0.056	0.944 ± 0.062	0.964 ± 0.044	0.956 ± 0.038
RDES SOFT TISSUE	1.16 ± 0.061	1.22 ± 0.13	1.04 ± 0.13	1.05 ± 0.12	0.953 ± 0.017	0.871 ± 0.056	0.987 ± 0.075	1.01 ± 0.13	1.15 ± 0.059	1.09 ± 0.17	1.02 ± 0.049	1.06 ± 0.042	0.918 ± 0.19	1.06 ± 0.089	1.14 ± 0.036	1.38 ± 0.15
S68 BREAST	1.01 ± 0.3	1.06 ± 0.074	1.04 ± 0.15	1.53 ± 0.22	0.832 ± 0.079	0.909 ± 0.13	0.891 ± 0.12	1.08 ± 0.26	1.19 ± 0.22	0.82 ± 0.23	0.959 ± 0.1	0.996 ± 0.26	0.676 ± 0.18	0.696 ± 0.17	0.691 ± 0.15	0.425 ± 0.11
SAOS2 BONE	1.11 ± 0.024	1.06 ± 0.082	1.14 ± 0.054	1.12 ± 0.023	0.9 ± 0.069	0.836 ± 0.066	0.831 ± 0.079	0.839 ± 0.14	1.12 ± 0.044	1.14 ± 0.08	1.14 ± 0.02	1.12 ± 0.16	0.844 ± 0.061	0.833 ± 0.069	0.747 ± 0.1	0.662 ± 0.021
SCC003 HEADNECK	1.06 ± 0.027	1.01 ± 0.12	1.1 ± 0.026	1.04 ± 0.061	1.08 ± 0.13	0.949 ± 0.081	0.998 ± 0.14	1.04 ± 0.099	1.03 ± 0.045	1.05 ± 0.016	1.1 ± 0.059	1.05 ± 0.078	1.07 ± 0.047	1.05 ± 0.091	0.99 ± 0.11	0.918 ± 0.057
